Results: US9751919B2, “Antimicrobial compositions comprising a hyaluronic acid binding peptide and a β-lactam antibiotic” (priority 2012, dated 2017)
Several values for one entry are separate records, joined by “and”; a condition that tells them apart may be missing. Identical values can stand only once. Marks after values point to notes of the source that are not given here.

Columns and labels:
E. coli = test: Checkerboard assay (FIC index); format: cell-based, Escherichia coli; conditions: antibiotic combined with PEP35
Method: Checkerboard assays were carried out as described by Bonapace et al.
Diagnostic Microbiology and Infectious Diseases 2002; 44:363-366. In brief, checkerboard assays were performed in 96 well microtitre trays using an 8-by-8 well configuration. […] 96-well custom designed microtitre plates contained 100 ul/well of cation adjusted Mueller-Hinton broth (eg. for Enterobacteriaceae) with or without lysed horse blood (2-5% V/V) [eg. for S. pneumoniae] and were inoculated to achieve a final concentration of approximately 5×10^5 CFU/ml and incubated in ambient air for 24 hours prior to reading. Colony counts were performed periodically to confirm inocula. Quality control was performed every two weeks using a variety of ATCC QC organisms including; S. pneumoniae 49619, S. aureus 29213, E. faecalis 29212, E. coli 25922 and P. aeruginosa 27853. […] All peptides were assessed for synergy with β-lactams and vancomycin. For all antimicrobials as well as the peptides, CLSI criteria were used.
(§1) The fractional inhibitory concentration index (FIC index) was used to interpret synergy, antagonism or additivity/indifference. FIC index=FIC of drug A+FIC of drug B where:
The FIC of drug A and drug B was calculated as follows, FIC drug A=MIC of drug A in combination/MIC of drug A alone and FIC of drug B=MIC of drug B in combination/MIC of drug B alone. Synergy was defined as FIC index ≦0.5, additivity/indifference defined as a FIC between 0.5 and 4 and antagonism defined as an FIC index >4.
(§2) The checkerboard assays were carried out as described by Eliopoulos and Moellering (Chapter 9) in Antibiotic in Laboratory Medicine, Lorian Ed. 1996 as well as Bonapace et al. Diagnostic Microbiology and Infectious Diseases 2002; 44:363-366 and Bonapace et al. Diagnostic Microbiology and Infectious Diseases 2000; 38:43-50. In brief, checkerboard assays were performed in 96 well microtitre trays using an 8-by-8 well configuration. […] 96-well custom designed microtitre plates contained 100 ul/well of cation adjusted Mueller-Hinton broth (eg. for Enterobacteriaceae) with or without lysed horse blood (2-5% V/V) [eg. for S. pneumoniae] and were inoculated to achieve a final concentration of approximately 5×10^5 CFU/ml and incubated in ambient air for 24 hours prior to reading. Colony counts were performed periodically to confirm inocula. Quality control was performed every two weeks using a variety of ATCC QC organisms including; S. pneumoniae 49619, S. aureus 29213, E. faecalis 29212, E. coli 25922 and P. aeruginosa 27853. For all antimicrobials as well as PEP35, CLSI criteria was used.
(§3) The FIC of drug A and drug B is calculated as follows, FIC drug A=MIC of drug A in combination/MIC of drug A alone and FIC of drug B=MIC of drug B in combination/MIC of drug B alone. Synergy is defined as FIC index ≦0.5, additivity/indifference FIC >0.5-4 and antagonism FIC index >4.
(§4) Antimicrobials used included PEP35, cefazolin, ceftriaxone, vancomycin, linezolid, tigecycline and daptomycin versus Gram-positive cocci and PEP35, gentamicin, levofloxacin, piperacillin/tazobactam, meropenem and colistin (Polymyxin E) versus Gram-negative bacilli. These agents were obtained as laboratory grade powders from their respective manufacturers. Stock solutions were prepared and dilutions made as described by the Clinical Laboratory Standards Institute (2005 CLSI).
Organisms included Gram-positive cocci (2 strains of each): Methicillin-susceptible Staphylococcus aureus (MSSA), community-associated (CA) and healthcare-associated (HA) methicillin-resistant Staphylococcus aureus (MRSA), vancomycin-intermediate Staphylococcus aureus (VISA), vancomycin-resistant Staphylococcus aureus (VRSA), methicillin-resistant Staphylococcus epidermidis (MRSE), Streptococcus pyogenes, Streptococcus agalactiae, Streptococcus pneumoniae, Enterococcus faecalis, Enterococcus faecium and vancomycin-resistant enterococcus (VRE). […]

P. aeruginosa = test: Checkerboard assay (FIC index); format: cell-based, Pseudomonas aeruginosa; conditions: antibiotic combined with PEP35
Method: as §2, §1, §3, §4
(§5) Organisms included Gram-positive cocci (2 strains of each): Methicillin-susceptible Staphylococcus aureus (MSSA), community-associated (CA) and healthcare-associated (HA) methicillin-resistant Staphylococcus aureus (MRSA), vancomycin-intermediate Staphylococcus aureus (VISA), vancomycin-resistant Staphylococcus aureus (VRSA), methicillin-resistant Staphylococcus epidermidis (MRSE), Streptococcus pyogenes, Streptococcus agalactiae, Streptococcus pneumoniae, Enterococcus faecalis, Enterococcus faecium and vancomycin-resistant enterococcus (VRE). Gram-negative bacilli tested (2 strains of each) included: E. coli, Pseudomonas aeruginosa, Klebsiella pneumoniae, K. oxytoca, Enterobacter cloacae, P. mirabilis and Stenotrophomonas maltophilia. MIC testing, following two subcultures from frozen stock were determined by the CLSI 2005 approved broth microdilution method.

S. maltophilia = test: Checkerboard assay (FIC index); format: cell-based, Stenotrophomonas maltophilia; conditions: antibiotic combined with PEP35; S. maltophilia 73062
Method: as §2, §1, §3, §4, §5

P. mirabilis [1] = test: Checkerboard assay (FIC index); format: cell-based, Proteus mirabilis; conditions: antibiotic combined with PEP35
Method: as §2, §1, §3, §4, §5

K. oxytoca = test: Checkerboard assay (FIC index); format: cell-based, Klebsiella oxytoca; conditions: antibiotic combined with PEP35
Method: as §2, §1, §3, §4, §5

E. cloacae = test: Checkerboard assay (FIC index); format: cell-based, Enterobacter cloacae; conditions: antibiotic combined with PEP35
Method: as §2, §1, §3, §4, §5

K. pneumoniae = test: Checkerboard assay (FIC index); format: cell-based, Klebsiella pneumoniae; conditions: antibiotic combined with PEP35
Method: as §2, §1, §3, §4, §5

P. mirabilis [2] = test: MIC, agent alone (broth microdilution); format: cell-based, Proteus mirabilis; conditions: footnote to Table 12; P. mirabilis 80267 and 81569
Description: as §5

For colistin (Polymyxin E), the “Avg ΣFIC (range)” value (E. coli; E. coli 69716) was 0.71 (0.31-1.06), the “Avg ΣFIC (range)” value (E. coli; E. coli 70752) was 0.81 (0.31-1.25) and the “Avg ΣFIC (range)” value (P. aeruginosa; P. aeruginosa 70849) was 0.70 (0.28-1.12). For the same substance, the “Avg ΣFIC (range)” value (P. aeruginosa; P. aeruginosa 71841) was 0.89 (0.53-1.25), the “Avg ΣFIC (range)” value (S. maltophilia) was 0.88 (0.53-1.25) and the “Avg ΣFIC (range)” value (P. mirabilis [1]; P. mirabilis 80267) was >1**. The “Avg ΣFIC (range)” value (P. mirabilis [1]; P. mirabilis 81569) was >1**, the “Avg ΣFIC (range)” value (K. oxytoca; K. oxytoca 75316) was 0.41 (0.24-0.56) and 0.62 (0.18-1.06) and 0.65 (0.18-1.12) and the “Avg ΣFIC (range)” value (K. oxytoca; K. oxytoca 76874) was 0.83 (0.31-2.03). For the same substance, the “Avg ΣFIC (range)” value (E. cloacae; E. cloacae 80194) was 0.70 (0.31-1.12), the “Avg ΣFIC (range)” value (E. cloacae; E. cloacae 83128) was 0.77 (0.5-1.06) and the “Avg ΣFIC (range)” value (K. pneumoniae; K. pneumoniae 70508) was 0.67 (0.31-1.06). For the same substance, the “Avg ΣFIC (range)” value (K. pneumoniae; K. pneumoniae 77081) was 0.61 (0.18-1.06) and the MIC (P. mirabilis [2]) was “COL MIC > 4096”.
